Patent publication US20180028477A1, “TREATMENT OF CARDIAC REMODELING AND OTHER HEART CONDITIONS” (C & C BIOPHARMA, LLC, priority 2013, published 2018)
“And” between values parts separate entries of the source, which are not always exact repeats. Identical values can stand only once. “Also recorded” adds a separate entry of the source.

Key:
[1] = system: cardiac hypertrophy induced by TAC in C57/BL/6 mice; assay: TAC 21 days: cardiac mass, geometry, wall thickness, myocyte size (Example 4); type: in vivo; details: 21 days after TAC
Description: (§1) The effects of 8MI on hypertrophy in a model of moderate pressure overload were tested further (FIGS. 5A-5E). 8MI or its vehicle (DMSO) was administered over a range of concentrations immediately prior to and for 21 days following transverse aortic coarctation (TAC). All experiments were performed on 2-3 month old wild type C57/BL/6 mice. Cardiac hypertrophy was induced by TAC as described in Wei et. al. 2008. Pressure gradients induced by TAC were evaluated postoperatively by pulsed-wave Doppler echocardiography to confirm equivalent gradients in all animals (45±5 mmHg). 8MI was delivered via tail vein injection one day prior to surgical intervention and then daily for 21 days. Blood samples were obtained at sacrifice on day 21 after surgery, and serum was frozen at […] until analysis
Masson's Trichrome was used to visualize cardiac four-chamber anatomy. Paraffin embedded sections were used for staining (FIG. 5B). Representative wheat germ agglutinin (WGA)-stained sections of myocardium from the mice were prepared. For echocardiography (FIG. 5C), mice were placed under anesthesia with 40 mg/kg ketamine and 5 mg/kg xylocaine and secured in a supine position. Mice were evaluated using […] transducer on a Visual Sonics 770 High Resolution Imaging System. B-mode in the short and long axis view of the ventricle was used to evaluate wall motion defects of ventricle and M-mode in long axis view used for the interventricular septal thickness, posterior wall thickness and the left ventricular dimensions in systole and diastole.
Hematoxylin and Eosin (HE) and FITC conjugated WGA (from Invitrogen) were used to evaluate myocardial cell size (FIGS. 5D and 5E). The sizes of cells from at least 4 myocardial sections from 3 mice per condition were measured (FIG. 5E). WGA samples were counterstained with DAPI and images were merged from the DAPI and FITC channels.

[2] = Serum chemistries in mice subjected to TAC and treated with 8MI (Example 6); type: in vivo; details: for ALT / BUN / Calcium / Creatinine / Glucose / Total Protein: serum, TAC
Description: as §1
Prior to sacrifice, serum was extracted from the blood of the mice treated as described in Example 4.

[3] = system: pressure overload produced by transverse aortic coarctation (TAC) in C57/B16 mice; type: in vivo
Description: […]. Mice were treated with daily injections of MEF2 inhibitor 8MI at the indicated concentrations for two weeks beginning immediately after transverse aortic banding. N=at least 3 per condition. Mice were subjected to either a sham operation (dark gray bars) or TAC (light gray bars). […] Ejection fraction, a measure of contractile function, was determined by echocardiography on a Vevo 770 ultrasound system prior to sacrifice at two weeks.
[…]. TAC has been used extensively to model the clinical hypertrophic stimuli of hypertension, aortic valve disease, and other types of pressure overload. In vivo pressure overload was created in wild type C57/B16 by creation of a surgical restriction in the transverse aorta between the origins of the right and left carotid arteries as previously described in Wei et. al. 2008. Control littermates were subjected to a sham operation. […] Trans-aortic gradients were determined by simultaneous measurements from the right and left carotid arteries using Statham pressure transducers (model P23XL, Viggo-Spectramed, Oxnard, Calif.) zeroed at the level of the right atrium. Pressures were continuously recorded as described in Wei et. al. 2008. […]
C57/B16 mice were treated with 8MI for two weeks and evaluated for cardiac function by echocardiography and for cardiac mass using a standard index of heart weight to tibia length (HW/TL) after sacrifice. […]

MEF2 = MEF2 acetylation in myocardial lysates, immunoprecipitation/Western (Example 9); type: in vivo, mice
Description: Acetyl-MEF2 and acetyl-GATA4 were determined as described in Example 9 in myocardial lysates of TAC- or sham-operated mice treated with the indicated doses of 8MI, or its vehicle (0), as indicated. […] MEF2 acetylation is increased by TAC and reduced by 8MI. Myocardial lysates were immunoprecipitated with either anti-pan MEF2 or GATA4 antibodies, and probed with antibodies against MEF2, GATA4 or acetyl-lysine (control). The quantified data shown in FIG. 9 is from 3 mice per group and normalized to total acetyl-lysine (western blots are not shown).
MEF2 acetylation was determined in myocardial tissue from sham- and TAC-operated mice in the presence of vehicle or 8MI, under the experimental conditions described in Example 4. Protein samples were collected in RIPA (Sigma). […] of protein samples were incubated with 5 μg of acetyl lysine or GATA4 antibodies (Upstate, Charlottesville, Va.) or MEF2 antibody (Santa Cruz Biotechnology, Santa Cruz, Calif.) (5 μg). The immune-complexes were captured using TrueBlot sepharose beads and subjected to Western analysis. The immune complexes were resolved on SDS-PAGE and transferred to nitrocellulose membranes. Membranes were blocked with 5% milk in 0.5% TBS-T for 1 hour at room temperature followed by incubation in primary antibody at appropriate dilutions overnight. […]

[4] = system: Neonatal Rat Ventricular Myocytes (NRVMs); assay: Serum (FBS)-induced hypertrophy of Neonatal Rat Ventricular Myocytes in vitro; type: cell-based
Description: The cells were also treated with DMSO (light gray bars) or a vehicle (dark gray bars) as a negative control. The order of potency for inhibitors was DMSO<7MI<TSA<8MI. Viability was unchanged (not shown).
Next, the ability of 7MI and 8MI to inhibit hypertrophy in vitro was tested (FIG. 2A). […] However, fetal calf serum, which contained a rich variety of growth factors, was chosen as the most robust and multifactorial stimulus for cardiomyocyte growth available, reasoning that a similarly robust and powerful inhibitor would be required to block this hypertrophy.

[5] = 8MI 5 mg/kg, individual mice #7-9
[6] = 8MI 20 mg/kg, individual mice #10-12
[7] = 8MI 40 mg/kg, individual mice #13-15

Nc1ccccc1NC(=O)CCCCCC(=O)Nc1cccc(Br)c1 [8MI]
effect on heart weight in comparison to previously published results for TSA [1]: significantly superior effect
reduction of myocyte cross sectional area in comparison to previously published results for TSA [1]: significantly superior effect
HW/TL at the highest dose ([1]; 40 mg/kg): normal levels
TAC-induced increase of myocyte cross-sectional area / myocyte size ([1]; WGA-stained sections): effectively eliminated this 2.2-fold increase; also recorded: normalization of myocyte size
remodeling of the myocardium (four-chamber sections) ([1]; dose-dependent): prevented remodeling of the myocardium; also recorded: normalization of cardiac geometry
increase of echocardiographic wall thickness ([1]; highest dose of 8MI (vehicle 35.9%±1.0%)): 6.9%±1.4%
echocardiographic posterior wall thickness ([1]; indicated doses): normalization of echocardiographic posterior wall thickness
TAC-induced increase of heart weight (HW/TL) ([1]; indicated doses up to 40 mg/kg, tail vein daily): blunted the increase of heart weight in a dose-dependent manner; also recorded: normalization of cardiac mass
tolerability from serum chemistries ([2]; TAC mice, 5-40 mg/kg, 21 days): well tolerated
mice with significant renal and/or hepatic dysfunction induced by TAC ([2]; mice receiving any dose of 8MI (control: 2 out of 3)): 1 out of 9
ALT [2, 5]: 47 U/L and 53 U/L and 58 U/L
BUN [2, 5]: 26 mg/dL and 21 mg/dL and 25 mg/dL
Calcium [2, 5]: 11.7 mg/dL and 9.7 mg/dL and 11 mg/dL
Creatinine [2, 5]: 0.2 mg/dL
Glucose [2, 5]: 375 mg/dL and 158 mg/dL and 294 mg/dL
Total Protein [2, 5]: 5.6 g/dL and 5.8 g/dL and 5.4 g/dL
ALT [2, 6]: 51 U/L and 73 U/L and 57 U/L
BUN [2, 6]: 21 mg/dL and 19 mg/dL and 28 mg/dL
Calcium [2, 6]: 9.9 mg/dL and 10.3 mg/dL and 11.1 mg/dL
Creatinine [2, 6]: 0.2 mg/dL
Glucose [2, 6]: 224 mg/dL and 177 mg/dL and 326 mg/dL
Total Protein [2, 6]: 5.3 g/dL and 5.6 g/dL and 6.0 g/dL
ALT [2, 7]: 56 U/L and 308 U/L and 60 U/L
BUN [2, 7]: 21 mg/dL and 26 mg/dL and 23 mg/dL
Calcium [2, 7]: 10.6 mg/dL and 8.7 mg/dL and 10.1 mg/dL
Creatinine [2, 7]: 0.3 mg/dL (2×) and 0.6 mg/dL
Glucose [2, 7]: 455 mg/dL and 140 mg/dL and 252 mg/dL
Total Protein [2, 7]: 6.2 g/dL and 5.5 g/dL and 5.7 g/dL
mortality ([3]; mouse, in vivo): no mortality
TAC-induced reduction of Left Ventricular Ejection Fraction (LVEF) ([3]; two weeks after TAC, 5, 20 and 40 μg/g 8MI daily): largely prevented this impairment of function
TAC-induced acetyl-MEF2 content (MEF2; TAC-operated mice, increasing doses of 8MI): reduced the acetyl-MEF2 content to level at or below those of the sham-operated mice; also recorded: reduced
total acetyl-MEF2 content, basal (MEF2; sham-operated mice, maximum dose (40 mg/kg) versus vehicle (DMSO), 40 mg/kg): not different; also recorded: does not reduce acetyl-MEF2 levels
viability ([4]; NRVMs (not shown)): unchanged
order of potency for inhibitors ([4]; NRVMs, FBS-induced growth): most potent inhibitor; also recorded: DMSO<7MI<TSA<8MI
growth response to Fetal Bovine Serum / serum-stimulated myocyte growth (hypertrophy) ([4]; NRVMs, pre-treatment with a range of doses): sufficient to block myocyte hypertrophy; also recorded: depressed growth response
